{"source": "patent US20160199460A1", "about": "“COMPOSITIONS FOR REDUCING THE DELETERIOUS EFFECTS OF STRESS AND AGING” (HydroPep, LLC, priority 2010, published 2016)", "origin": "cited, not measured here", "test_system": "aging individuals (>50 years of age)", "details": "oral D-ribose; aging individuals (>50 years of age) with tiredness for at least one month"}
{"smiles": "O=C[C@H](O)[C@H](O)[C@H](O)CO", "note": "[D-ribose]", "values": [{"measurement": "Physical fatigue and mental outlook", "value": "lessening physical fatigue"}]}
